A short description of this data set: Agilent ZORBAX 300 SB-C18, 150 × 1 mm, 3.5 µm; A: water + 0.01% heptafluorobutyric acid; B: acetonitrile + 0.01% heptafluorobutyric acid; gradient (min/%B) 0/0 100/90. As to conditions: stereoisomer not certain.
For the compound `CC(=O)c1c(C(C)=O)c(C)n(CCc2c[nH]c3ccccc23)c1C`, the LC retention time was determined as 12.5 min. Under `CCN(CC)CCNC(=O)c1ccc(N)cc1` stands 7.73 min; under `CN(C)CCCN1CCC(O)C2CCCCC21` (stereo unspecified), 7.19 min; under `Nc1ccc(CCc2ccncc2)cc1`, 7.22 min. Under `O=C(NCCN1CCN(Cc2ccccc2)CC1)C(=O)Nc1ccccc1` stands 9.75 min; under `CN(C)CCCN1CCC(=O)C2CCCCC21` (stereo unspecified), 7.52 min. Under `CC(=O)C1CCC2C3CC(C)C4=CC(=O)CCC4(C)C3C(O)CC12C` (stereo unspecified) stands 14.8 min. Take `CCC(C)N1CNc2c(c(=O)[nH]c(=O)n2Cc2ccccc2)C1` (stereo unspecified): the LC retention time was 8.19 min. Under `Cc1nc2ccccc2c(=O)o1` stands 9.03 min. Under `O=P(O)(O)CN(CCN(CP(=O)(O)O)CP(=O)(O)O)CP(=O)(O)O` stands 1.09 min. Under `NCCCCC(NC(CCc1ccccc1)C(=O)[O-])C(=O)N1CCCC1C(=O)O` (stereo unspecified) stands 8.09 min; under `COc1ccc(NC(C)c2ccccc2)cc1` (stereo unspecified), 10.7 min; under `CC(C)CNC(=O)c1cccc2c1-c1ccccc1C2=O`, 13.3 min. In the case of `CC(=O)NC(NC(C)=O)C(O)C(O)C(O)C(O)CO` (stereo unspecified), the LC retention time came to 1.55 min. Under `Cc1ccc(C)n1-c1ccccc1CO` stands 12.7 min; under `Nc1ccc(N2CCOCC2)c(N)c1`, 7.33 min; under `Nc1nc(N)nc(Cc2ccccc2)n1`, 7.96 min. In the case of `CCN(CC)CCCC(C)N` (stereo unspecified), the LC retention time came out at 7.05 min. Under `O=C(NN=Cc1ccccc1)c1ccncc1` stands 8.96 min; under `O=c1[nH]c2cc[nH]c(=O)c2[nH]1`, 2.62 min. Under `NCc1ccccc1C(=O)O` stands 7 min. As to `CCn1ccc(C(C)C)c1-c1ccccc1`, the LC retention time came to 19 min.

As for `NC(CO)c1ccccc1` (stereo unspecified), the LC retention time turned out to be 7.02 min. The same measure for `NCC1CCCCN1` (stereo unspecified): 6.88 min. Under `Nc1cccc(S(=O)(=O)O)c1` stands 1.45 min. Under `CN1CCOC(c2ccccc2)c2ccccc2C1` (stereo unspecified) stands 10.1 min; under `Cc1ccc(C)c(-c2cc(C)ncc2C)c1`, 10.6 min.

With `COc1ccc(C=CC(=O)C=Cc2ccc(OC)cc2)cc1`, the LC retention time stood at 16.1 min.

With `CC(=O)N1CCc2[nH]c3ccccc3c2C1`, the LC retention time is 10.2 min. The same measure for `CCCNC(=O)Nc1ccc2c(c1)oc1ccccc12`: 14 min; for `CC1(C)CC(NC(=O)C(=O)NC2CC(C)(C)NC(C)(C)C2)CC(C)(C)N1`: 7.48 min. Under `O=CN1CCNCC1` stands 2.79 min; under `NCC1CCNCC1`, 6.49 min; under `CCCCC[N+]1(C)CCCC1`, 7.4 min. Under `OCC(CO)(CO)c1ccccn1` stands 4.36 min; under `Nc1cccc(N)c1`, 5.85 min.

As for `Nc1ccc(C=C(C(=O)O)c2ccccc2)cc1`, the LC retention time turned out to be 9.96 min.

As for `COc1ccc2c(c1)CCC1C2CCC2(C)C(=O)C(=Cc3ccccc3)CC12` (stereo unspecified), the LC retention time is 21.4 min.

For the compound `O=C(O)c1c[nH]c(=O)[nH]1`, the LC retention time came out at 1.64 min. The same measure for `CCN(CC)c1nc(N)nc(N2N=CC=NN2)n1`: 8.12 min.

`CC(N)CN(C)C` (stereo unspecified): the LC retention time is 6.58 min.

Take `CC(C)(C)C1=CC(=O)CN(C(C)(C)C)C1`: the LC retention time was 8.19 min. The same measure for `CC12CCC(=O)C=C1CCC1C2CCC2(C)C1CCC2(C)O` (stereo unspecified): 14.5 min. As to `CCN(CC)CCOC(=O)c1ccc(N)cc1`, the LC retention time worked out at 8.41 min. The same measure for `O=C(O)CC(CC(=O)O)c1ccccn1`: 5.88 min; for `CCCc1c(O)c2ccccc2[nH]c1=O`: 9.59 min. For `CCc1cnccn1`, the LC retention time is 8.09 min.

`O=C1OCc2c1[nH]c(=O)[nH]c2=O`: the LC retention time was determined as 1.27 min.

Regarding `Cc1cccnc1C`, the LC retention time worked out at 6.67 min. Under `NCCCP(=O)(O)O` stands 1.3 min. Under `Cc1cccnn1` stands 5.91 min; under `CN(C)CCC=C1c2ccccc2CCc2ccccc21`, 11.8 min; under `O=C(c1cccc(C(=O)N(Cc2ccccc2)c2ccccn2)c1)N(Cc1ccccc1)c1ccccn1`, 15.4 min.

Regarding `CNCCc1ccccn1`, the LC retention time worked out at 6.92 min.

For the compound `C=CCNC1CCCCC1`, the LC retention time amounted to 7.93 min.

In the case of `O=C1CC(N2CCN(C3CC(=O)N(CCc4ccccc4)C3=O)CC2)C(=O)N1CCc1ccccc1` (stereo unspecified), the LC retention time turned out to be 12.4 min.

In the case of `CCCCCCCCCCCCNC`, the LC retention time came to 13.5 min. For the compound `CC(=Nc1ccc(N=Nc2ccccc2)cc1)N(C)C`, the LC retention time is 10.9 min. Under `O=C1CCCN1c1ccccc1` stands 10 min; under `COc1ccc(N2CCCC2=O)cc1`, 9.78 min; under `OCc1ccccc1CNC1CCCCC1`, 8.87 min. The same measure for `Cc1nc2c(ccc3[nH]c(C)nc32)[nH]1`: 7.32 min. The same measure for `CC1CCCCN1C(=O)c1ccccc1N` (stereo unspecified): 11.1 min; for `O=C(O)c1c2c(nc3ccccc13)CCCC2`: 5.96 min. Turning to `CC[N+](C)(CC)CC`, the LC retention time stood at 6.48 min.

As to `Cc1cc[n+](CCc2ccccc2)cc1C`, the LC retention time stood at 9.48 min. The same measure for `c1ccc2[nH]cnc2c1`: 7.09 min; for `N=C(N)c1ccc(N)cc1`: 6.62 min. The same measure for `O=C(NCCc1c[nH]c2ccccc12)c1c[nH]c2ccccc12`: 11.8 min; for `Cc1ccc(C(=O)O)c(=O)[nH]1`: 6.43 min; for `CNC(=O)NC`: 1.96 min. Under `O=c1[nH][nH]c2c1CCCC2` stands 7.38 min; under `Cc1cc(C=O)c(C)n1-c1ccccc1`, 13 min; under `Cc1ccc(Nc2cc(=O)oc3ccccc23)cc1C`, 14.2 min. Regarding `Cc1ccc(N2NC(C)(CC(C)C)NC2=S)cc1` (stereo unspecified), the LC retention time came to 15.1 min. Under `CC(=O)Nc1c(C)cc(C)cc1NC(=O)c1cc2ccccc2o1` stands 12.5 min. The same measure for `CCCCOC(=O)c1ccc(NC(=O)CCCC)cc1`: 16.3 min. Under `CN1CCN(c2nc(N)cc(=O)[nH]2)CC1` stands 5.8 min. For the compound `COc1cccc2ccc(C)nc12`, the LC retention time turned out to be 7.77 min. Under `Cc1c(-c2ccccc2)cc(-c2ccccc2)nc1-c1ccccc1` stands 19.2 min; under `CCc1c(C)nc2c(O)cccn2c1=O`, 8.76 min; under `O=C(O)C1CCCN1Cc1ccccc1` (stereo unspecified), 6.6 min.

For the compound `CCCCNC(=O)NCCCC`, the LC retention time came out at 10.5 min. Under `CC(=O)C=Cc1ccccc1` stands 11.8 min; under `c1cncc(-c2nc3ccccc3[nH]2)c1`, 8.19 min; under `O=C(NN=Cc1ccc(OCc2ccccc2)cc1)c1ccc(-c2ccccc2)cc1`, 16.9 min.

For the compound `NC(=O)CNC(=O)c1ccc2ccccc2n1`, the LC retention time stood at 8.66 min. Under `Cc1cn(-c2ccccc2)[nH]c1=O` stands 10.8 min; under `C#CCN(C)C`, 4.22 min; under `O=C(O)C=CC(=O)N1CCc2ccccc21`, 9.97 min. Turning to `Cc1cccc(NC(N)=S)n1`, the LC retention time stood at 8.81 min. Under `Cc1ccc2ccc3ccc(C)nc3c2n1` stands 8.67 min; under `COC(=O)c1cccc(N=C2N=C(N)c3ccccc32)c1`, 9.59 min; under `CCC(=O)c1ccc2c(c1)N(CC(C)N(C)C)c1ccccc1S2` (stereo unspecified), 11.8 min. Take `Cc1ccc(-n2cccc2)c(O)c1`: the LC retention time turned out to be 13.1 min. Under `O=c1[nH][nH]c(=O)c2nccnc12` stands 3.97 min; under `Cc1ccc(-c2ccc(C(=O)O)[nH]2)cc1`, 12 min; under `CCCc1ccc(O)c(N)c1`, 8.64 min. `COC(=O)CN`: the LC retention time was found to be 3.64 min. As for `CCn1c(=O)n(CC)c2cc(C=O)ccc21`, the LC retention time came to 10.2 min.

As to `CCc1ncc(C)[nH]1`, the LC retention time amounted to 6.62 min.

As to `Cc1[nH]c(C)c(C(=O)Nc2ccccc2)c1C`, the LC retention time came out at 11.9 min. Turning to `CCC(C)C(NC(=O)C1CCCN1)C(=O)O` (stereo unspecified), the LC retention time stood at 7.86 min.

On to `CCCCCCCCCN(C)C`, for which the LC retention time came out at 11.1 min. On to `CN1CCCNCC1`, for which the LC retention time was determined as 6.55 min.

On to `Nc1nc(N)nc(-c2ccc(-c3nc(N)nc(N)n3)cc2)n1`, for which the LC retention time was found to be 7.16 min. As for `CCCCCn1c(CCC)nc2ccccc21`, the LC retention time came out at 11.3 min. The same measure for `Cc1cc(-c2noc(C(c3ccccc3)c3ccccc3)n2)c2ccccc2n1`: 16.9 min. As for `COc1ccc(OCc2nc3ccccc3nc2C)cc1`, the LC retention time stood at 14.1 min. Consider `Cc1ccc(-c2cc3ccccc3[nH]2)c(C)c1`, for which the LC retention time was determined as 17.6 min. The same measure for `O=C(O)CC(NC(=O)OCc1ccccc1)C(=O)O` (stereo unspecified): 9.01 min; for `COc1ccc(C=CC(C)=O)cc1`: 12 min.

Consider `O=C1C=CC(=O)N1C1CCCCC1`, for which the LC retention time worked out at 9.58 min.

As to `O=C(O)CC(NCc1ccccc1)C(=O)O` (stereo unspecified), the LC retention time stood at 6.19 min.

With `Cn1c(=O)c2cc(C(=O)O)ccc2n(C)c1=O`, the LC retention time is 8.5 min. Under `CCOC(=O)C1C(C)=NC(=O)NC1C` (stereo unspecified) stands 8.75 min.

The values are drawn from the RepoRT retention time repository.
